ChEMBL document CHEMBL1131042, “beta-Lactam derivatives as inhibitors of human cytomegalovirus protease” (J Med Chem, 1998)

Columns and labels:
[1] = Time taken to reduce 50% of the concentration of compound in blood plasma; type: ADME, tissue-based; conditions: human
Pancreatic elastase = Pancreatic elastase (Sus scrofa, UniProt P08419+P00772); test: Compound was tested for its activity against porcine Pancreatic elastase; type: protein assay
Chymotrypsinogen A = Chymotrypsinogen A (Bos taurus, UniProt P00766); test: Compound was tested for its activity against bovine pancreatic Alpha-chymotrypsin (BPC)
Neutrophil elastase = target: T1, Neutrophil elastase (Homo sapiens, UniProt P08246); test: Compound was tested for its activity against human leukocyte elastase(HLE)
T1 sequence (P08246 whole entry): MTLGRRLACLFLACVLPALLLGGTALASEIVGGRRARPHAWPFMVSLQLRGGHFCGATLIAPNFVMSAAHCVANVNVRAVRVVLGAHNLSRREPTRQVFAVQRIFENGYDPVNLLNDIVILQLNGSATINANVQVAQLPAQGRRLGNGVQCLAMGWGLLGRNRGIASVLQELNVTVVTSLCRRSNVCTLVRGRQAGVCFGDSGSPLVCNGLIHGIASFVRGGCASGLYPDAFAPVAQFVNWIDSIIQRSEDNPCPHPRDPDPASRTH

half-life [1] [h]	IC50 (Pancreatic elastase) [µM]	IC50 (Chymotrypsinogen A) [µM]	IC50 (Neutrophil elastase) [µM]	Compound
36	19			C[C@H]1C(=O)N(C(=O)NCc2ccncc2)[C@H]1Cc1ccccc1
24	> 75	> 75	> 75	O=C1C[C@H](Cc2ccccc2)N1C(=O)NCc1ccncc1
120				CC1(C)C(=O)N(C(=O)NCc2ccncc2)C1Cc1ccccc1 (single isomer, unassigned)
36				O=C1C[C@H](Cc2ccccc2)N1C(=O)NCc1ccccn1
36	53			C[C@@H]1C(=O)N(C(=O)NCc2ccncc2)[C@H]1Cc1ccccc1
48	1.7	19		CC[C@@H]1C(=O)N(C(=O)NCc2ccncc2)[C@H]1Cc1ccccc1
36				O=C1C[C@H](Cc2ccccc2)N1C(=O)NCc1ccccc1
120	45	> 75	3	CC1(C)C(=O)N(C(=O)NCc2ccncc2)[C@H]1Cc1ccccc1
< 12	< 0.2	2.2	< 0.2	CS[C@@H]1C(=O)N(C(=O)NCc2ccncc2)[C@H]1Cc1ccccc1
< 12	0.3	38	0.9	CO[C@@H]1C(=O)N(C(=O)NCc2ccncc2)[C@H]1Cc1ccccc1
24				O=C1C[C@H](Cc2ccccc2)N1C(=O)NCc1cccnc1

Second part, the molecule before the results:

Compound	half-life [1] [h]	IC50 (Pancreatic elastase) [µM]	IC50 (Chymotrypsinogen A) [µM]	IC50 (Neutrophil elastase) [µM]
O=C1C[C@H](Cc2ccccc2)N1C(=O)Nc1ccc(F)cc1	< 12			
O=C1C[C@H](Cc2ccccc2)N1C(=O)NCCc1ccccc1	36			
CCN(Cc1ccccc1)C(=O)N1C(=O)C[C@@H]1Cc1ccccc1	48			
CN(Cc1ccccc1)C(=O)N1C(=O)C[C@@H]1Cc1ccccc1	36			
O=C1C[C@H](Cc2ccccc2)N1C(=O)NC1CCCCC1	24			
O=C1C[C@H](Cc2ccccc2)N1C(=O)N(Cc1ccccc1)OCc1ccccc1	< 12			
C=CC[C@@H]1C(=O)N(C(=O)NCc2ccncc2)[C@H]1Cc1ccccc1	36	4.7	6	0.3
CON(Cc1ccccc1)C(=O)N1C(=O)C[C@@H]1Cc1ccccc1	< 12			
O=C1C[C@H](Cc2ccccc2)N1C(=O)N(Cc1ccccc1)C1CC1	48			
Cc1ccc(NC(=O)N2C(=O)C[C@@H]2Cc2ccccc2)cc1	< 12			
COc1ccc(NC(=O)N2C(=O)C[C@@H]2Cc2ccccc2)cc1	12			
O=C1C[C@H](Cc2ccccc2)N1C(=O)Nc1ccccc1	< 12			
